Melting point data for 36 compounds are collected here from a melting point compilation (Tetko et al.; mined from patent text by program, amines drawn as free bases though some values may be those of a salt).

Molecules are shown by their SMILES.

Usually melting point stands for the temperature of the solid-liquid transition. Compound `Cc1cc2nnn(C(=O)N3CCOCC3)c2cc1C` had a melting point of 191 °C.

`COc1cc2c(cc1OCc1ccccc1)CC(C(=O)O)NC2` (racemic) registered a melting point of 230 to 240 °C.

Turning to `CC(C)N(CCS(=O)(=O)c1ccc(F)cc1)C(=O)Oc1ccccc1`, the melting point lay in the range of 94 to 95 °C.

Take `O[C@@H]1CCCN(C[C@@H]2CCN(CCc3c[nH]c4ccc(-n5cncn5)cc34)C2)[C@@H]1c1ccccc1`: the melting point was in the range of 192 to 193 °C.

`CNCC(CNC(C)=O)c1cccc2ccc(OC)cc12` (stereo unspecified) came in with a melting point of 126 to 128 °C.

`N#Cc1ccc(-c2cc(F)c(F)c(OC3SCC(O)C(O)C3O)c2)cn1` (stereo unspecified) showed a melting point of 173 °C.

Compound `O=C1N(Cc2cccc(Cl)n2)c2ccccc2C12COc1cc3c(cc12)OCCO3` (stereo unspecified) had a melting point of 181 to 182 °C.

As for `O=C(O)[C@@H]1CCc2cc(F)ccc2O1`, the melting point was 99.7 °C.

As for `CCN(CCOC)C(=O)C1=CC(c2ccccc2)C(=O)n2cc3cccc(Cl)c3c21` (stereo unspecified), the melting point is 146 to 148 °C.

For the compound `CCOC(=O)C=C(c1ccc(I)cc1)c1ccc(I)cc1`, the melting point lay within 95 to 100 °C.

Consider `ClCCN(CCCl)CCOc1cccc(Nc2c3ccccc3nc3c(OCCN(CCCl)CCCl)cccc23)c1`, for which the melting point lay within 108 to 109 °C.

With `COc1ccc(-c2cncc(C#N)c2Nc2ccc3[nH]ccc3c2)cc1Br`, the melting point lay in the range of 148 to 150 °C.

As for `Cn1c(C(F)(F)F)cc(=O)n(-c2cc(OCC(=O)c3ccccc3)c(Cl)cc2F)c1=O`, the melting point is 152 to 153 °C.

For the compound `CC(=O)c1ccc(N(C2CC2)S(=O)(=O)c2cccc(C(=O)Nc3ccc(C#N)cc3)c2)cc1`, the melting point lay within 185 to 186 °C.

`C=CCNC(=O)CCCC(=O)O` registered a melting point of 35.1 °C.

`COC(=O)C(C#N)=C(O)c1cc(F)c(F)c(F)c1F` gave a melting point of 71 to 73 °C.

`c1ccc(Cc2c[nH]c3ccccc23)cc1` gave a melting point of 108 to 110 °C.

On to `COc1cc(OC)nc(C2(O)OC(=O)c3c(Cl)cccc32)n1` (stereo unspecified), for which the melting point was in the range of 188 to 190 °C.

For the compound `Cc1cc2cnc(OCCc3ccc(OC(C)(C)C)cc3)nc2o1`, the melting point came out at 75 °C.

In turn, `CC(=O)c1coc(S(N)(=O)=O)c1` had a melting point of 135 to 136 °C.

Turning to `CC(C)OC(=O)OCC1(C)COC(=O)OC1`, the melting point was 64 to 65 °C.

In the case of `CCCCCCCCCCCCNc1ncnc2nc[nH]c12`, the melting point lay in the range of 159 to 160 °C.

`Cc1cc(-c2c(-c3ccc(S(C)(=O)=O)cc3)cnn(-c3cccc(Cl)c3)c2=O)ccc1F` had a melting point of 228 to 230 °C.

As to `O=C(CBr)c1cccc2nnsc12`, the melting point was in the range of 155 to 157 °C.

In the case of `CCC(CC)OC(=O)c1ccc(C(=O)NS(=O)(=O)c2ccccc2)cn1`, the melting point was 182 to 183 °C.

`O=C(N[C@@H](Cc1ccccc1)C(=O)NC(O)C(=O)O)OCc1ccccc1` (stereo partly specified) came in with a melting point of 117 to 127 °C.

For the compound `CC(C)(C)Sc1ccc(CN(O)C(N)=O)s1`, the melting point was 101 to 103 °C.

For the compound `CCOC(=O)c1cn(C)c2cc(Cl)sc2c1=O`, the melting point fell in the range of 168 to 171 °C.

For `Cc1cccc(Oc2c[nH]c(=S)[nH]c2=O)c1`, the melting point came out at 210 °C.

In the case of `Nc1cccc(/C=C/c2nc(C3CCCC3)cs2)c1`, the melting point is 59 to 61 °C.

Regarding `O=C1c2ccncc2C(=O)c2c(Cl)ccc(F)c21`, the melting point was 204 to 206 °C.

Compound `C=C(C)C(=O)OCCCCCCS(=O)(=O)c1ccc(O)c(C)c1` gave a melting point of 84 to 85 °C.

In turn, `CCCCc1nc2cccc(C(=O)OC)c2n1Cc1ccc(-c2ccccc2C#N)cc1` showed a melting point of 123 to 124 °C.

`CC(=O)Nc1cc([N+](=O)[O-])ccc1OCC(C)O` (stereo unspecified) registered a melting point of 123 °C.

For the compound `CCC(NC(=S)NCc1ccc(C(C)(C)C)cc1)c1ccc(NS(C)(=O)=O)c(F)c1` (stereo unspecified), the melting point came out at 85 °C.

For the compound `CCOC(=O)c1cn(C2CC2)c2nc(N3C[C@@H](CN(C)C(=O)C(F)(F)F)[C@@H](F)C3)c(F)cc2c1=O` (relative stereo), the melting point was 177 to 179 °C.
